Assay results reported in ChEMBL document CHEMBL5523725, “Fragment-Based Anti-inflammatory Agent Design and Target Identification: Discovery of AF-45 as an IRAK4 Inhibitor to Treat Ulcerative Colitis and Acute Lung Injury” (J Med Chem, 2024).
Activity calls are given as the source filed them. The calls are words filed in the database; no cut-off is given here.

How the values were obtained:
[1] = Cytotoxicity against mouse RAW264.7 cells assessed as cell viability by MTT assay; assay type: toxicity, cell-based; parameters: concentration or dose not given beside the values; details: read-out: Activity
RAW264.7 = test: Antiinflammatory activity in LPS-induced mouse RAW264.7 cells assessed as inhibition of IL-6 release at 10 uM pretreated for 30 mins followed by LPS stimulation and measured after 24 hrs by ELISA relative to control; assay type: functional; details: time 24.5 hrs
Mus musculus [2] = test: Antiinflammatory activity in male C57BL/6 mouse model of DSS-induced ulcerative colitis assessed as reduction in colonic structure destruction at 100 mg/kg, po administered for 11 days with subsequent administration of DSS for 8 days by H and E staining based analysis; assay type: functional, organism-based; details: time 11.0 day
Mus musculus [3] = test: Antiinflammatory activity in male C57BL/6 mouse model of DSS-induced ulcerative colitis assessed as restoration of protein status at 100 mg/kg, po administered for 11 days with subsequent administration of DSS for 8 days by H and E staining based analysis; assay type: functional, organism-based; details: time 11.0 day
Mus musculus [4] = test: Antiinflammatory activity in male C57BL/6 mouse model of DSS-induced ulcerative colitis assessed as reduction in macrophage infiltration in spleen at 100 mg/kg, po administered for 11 days with subsequent administration of DSS for 8 days by F4/80 labeling based immunohistochemistry analysis; assay type: functional, organism-based; details: time 11.0 day
Mus musculus [5] = test: Antiinflammatory activity in male C57BL/6 mouse model of DSS-induced ulcerative colitis assessed as reduction in macrophage infiltration in colon at 100 mg/kg, po administered for 11 days with subsequent administration of DSS for 8 days by F4/80 labeling based immunohistochemistry analysis; assay type: functional, organism-based; details: time 11.0 day
Mus musculus [6] = test: Antiinflammatory activity in male C57BL/6 mouse model of DSS-induced ulcerative colitis assessed as preservation of goblet cells at 100 mg/kg, po administered for 11 days with subsequent administration of DSS for 8 days by H and E staining based analysis; assay type: functional, organism-based; details: time 11.0 day
Mus musculus [7] = test: Antiinflammatory activity in male C57BL/6 mouse model of DSS-induced ulcerative colitis assessed as reduction in spleen to body weight ratio at 100 mg/kg, po administered for 11 days with subsequent administration of DSS for 8 days; assay type: functional, organism-based; details: time 11.0 day
Mus musculus [8] = test: Anti-colitis activity in male C57BL/6 mouse model of DSS-induced ulcerative colitis assessed as colon length at 100 mg/kg, po administered for 11 days with subsequent administration of DSS for 8 days (reference value: 5.2 cm); assay type: functional; details: time 11 day
Mus musculus [9] = test: Antiinflammatory activity in LPS induced C57BL/6 mouse model of acute lung injury assessed as inhibition of TNFalpha release in BALF at 20 mg/kg, ip preadministered for 30 mins followed by LPS administration and measured after 6 hrs by ELISA; assay type: functional, organism-based; details: time 6.5 hrs
Mus musculus [10] = test: Antiinflammatory activity in LPS induced C57BL/6 mouse model of acute lung injury assessed as reduction in over activation of spleen at 20 mg/kg, ip preadministered for 30 mins followed by LPS administration and measured after 6 hrs by F4/80 labeling based immunohistochemical analysis; assay type: functional, organism-based; details: time 6.5 hrs
Mus musculus [11] = test: Antiinflammatory activity in LPS induced C57BL/6 mouse model of acute lung injury assessed as reduction in number of macrophages in spleen at 20 mg/kg, ip preadministered for 30 mins followed by LPS administration and measured after 6 hrs by F4/80 labeling based immunohistochemical analysis; assay type: functional, organism-based; details: time 6.5 hrs
Mus musculus [12] = test: Antiinflammatory activity in LPS induced C57BL/6 mouse model of acute lung injury assessed as inhibition of IL-6 release in BALF at 20 mg/kg, ip preadministered for 30 mins followed by LPS administration and measured after 6 hrs by ELISA; assay type: functional, organism-based; details: time 6.5 hrs
Mus musculus [13] = test: Antiinflammatory activity in LPS induced C57BL/6 mouse model of acute lung injury assessed as reduction in macrophage infiltration in lung at 20 mg/kg, ip preadministered for 30 mins followed by LPS administration and measured after 6 hrs by F4/80 labeling based immunohistochemical analysis; assay type: functional, organism-based; details: time 6.5 hrs
Mus musculus [14] = test: Antiinflammatory activity in LPS induced C57BL/6 mouse model of acute lung injury assessed as inhibition of IL-6 release in serum at 20 mg/kg, ip preadministered for 30 mins followed by LPS administration and measured after 6 hrs by ELISA; assay type: functional, organism-based; details: time 6.5 hrs
Mus musculus [15] = test: Antiinflammatory activity in LPS induced C57BL/6 mouse model of acute lung injury assessed as inhibition of TNFalpha release in serum at 20 mg/kg, ip preadministered for 30 mins followed by LPS administration and measured after 6 hrs by ELISA; assay type: functional, organism-based; details: time 6.5 hrs
Mus musculus [16] = test: Antiinflammatory activity in LPS induced C57BL/6 mouse model of acute lung injury assessed as reduction in white pulp fusion at 20 mg/kg, ip preadministered for 30 mins followed by LPS administration and measured after 6 hrs by H and E staining based analysis; assay type: functional, organism-based; details: time 6.5 hrs
Mus musculus [17] = test: Antiinflammatory activity in LPS induced C57BL/6 mouse model of acute lung injury assessed as reduction in spleen over activation at 20 mg/kg, ip preadministered for 30 mins followed by LPS administration and measured after 6 hrs by H and E staining based analysis; assay type: functional, organism-based; details: time 6.5 hrs
[18] = molecular target: T1, Lymphocyte antigen 96 (Mus musculus) (UniProt Q9JHF9); test: Thermal stabilization of MD2 in mouse RAW264.7 cells assessed as reduction in decomposition at 10 uM at 45 to 51 degreeC measured after 4 hrs by CETSA; assay type: cell-based
T1 sequence (whole entry): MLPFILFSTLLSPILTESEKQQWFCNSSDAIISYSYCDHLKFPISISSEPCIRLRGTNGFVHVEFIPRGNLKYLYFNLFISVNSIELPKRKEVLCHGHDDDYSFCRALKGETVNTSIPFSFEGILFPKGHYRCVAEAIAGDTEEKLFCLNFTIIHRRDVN

SMILES	viability [1] [%]	inhibition at 10 µM (RAW264.7) [%]	further results
N[C@H]1C[C@@H](OC(=O)c2nn(-c3ccccc3)ccc2=O)C1	89	33.2	
COc1cc2ncnc(Oc3cccc(NC(=O)N[C@H]4CC[C@@H](NC(=O)c5ccccn5)CC4)c3)c2cc1OC	116	45.4	
COc1cc2ncnc(Oc3cccc(NC(=O)N[C@H]4CC[C@@H](NC(=O)OC(C)(C)C)CC4)c3)c2cc1OC	92.1	2.1	
COc1cc2ncnc(Oc3cccc(NC(=O)N[C@H]4CC[C@@H](NC(=O)c5ccc(C)cc5)CC4)c3)c2cc1OC	124	72.7	
COc1cc2ncnc(Oc3cccc(NC(=O)N[C@H]4CC[C@@H](NC(=O)CCC5CCCC5)CC4)c3)c2cc1OC	117	52.9	
COc1cc2ncnc(N[C@H]3CC[C@@H](NC(=O)c4ccc(F)cc4)CC3)c2cc1OC	102	39.9	
COc1cc2ncnc(Oc3cccc(NC(=O)N[C@H]4CC[C@@H](NC(=O)c5cccc(F)c5)CC4)c3)c2cc1OC	121	45.4	
COc1cc2ncnc(Oc3cccc(NC(=O)O[C@H]4C[C@@H](N)C4)c3)c2cc1OC	106	46.9	
COc1cc2ncnc(N[C@H]3CC[C@H](N)CC3)c2cc1OC	108	64.6	
COc1cc2ncnc(N[C@H]3CC[C@@H](NS(=O)(=O)c4ccc(C)cc4)CC3)c2cc1OC	104	45.4	
COc1cc2ncnc(NCCc3cccs3)c2cc1OC	88.1	16.1	
Nc1ccc(O)c(C(=O)O)c1 [MESALAMINE]			Activity (Mus musculus [2]): Active; Activity (Mus musculus [3]): Active; Activity (Mus musculus [4]): Active; Activity (Mus musculus [5]): Active; Activity (Mus musculus [6]): Active; Activity (Mus musculus [7]): Active; Activity (Mus musculus [8]): 6 cm
COc1cc2ncnc(O[C@H]3CC[C@H](N)CC3)c2cc1OC	93.7	57.4	
COc1cc2ncnc(Oc3cccc(NC(=O)N[C@H]4CC[C@@H](N)CC4)c3)c2cc1OC	91.5	77.3	
COc1cc2nc(Cl)nc(O[C@H]3CC[C@@H](N)CC3)c2cc1OC	105	34.3	
COc1cc2ncnc(N[C@H]3CC[C@@H](NCCO)CC3)c2cc1OC	99.7	10.6	
COc1cc2c(N[C@H]3CC[C@@H](N)CC3)ncnc2cc1OCc1ccccc1	86.7	88.6	
COc1cc2ncnc(N[C@H]3CC[C@@H](NC(=O)c4ccc(C)cc4)CC3)c2cc1OC	97.8	42.3	

SMILES	viability [1] [%]	inhibition at 10 µM (RAW264.7) [%]	further results
COc1cc2ncnc(Oc3cccc(NC(=O)N[C@H]4CC[C@@H](NC(=O)c5ccc(F)cc5)CC4)c3)c2cc1OC	123	52.2	
N[C@H]1CC[C@@H](Oc2ncnc3cc(Cl)ccc23)CC1	98.8	53.1	
N[C@H]1CC[C@@H](OC(=O)c2nn(-c3ccccc3)ccc2=O)CC1	107		inhibition (RAW264.7): inactive
CN[C@H]1CC[C@@H](Nc2ncnc3cc(OC)c(OC)cc23)CC1	98.2		inhibition (RAW264.7): inactive
COc1cc2ncnc(Oc3cccc(NC(=O)O[C@H]4CC[C@@H](N)CC4)c3)c2cc1OC	96.5	73.4	
Cn1c(CNC(=O)O[C@H]2C[C@@H](N)C2)nc2ccccc21	97.1	44.7	
COc1cc2ncnc(Oc3cccc(NC(=O)N[C@H]4CC[C@@H](NC(=O)c5ccc(F)cc5Cl)CC4)c3)c2cc1OC	130	9.4	
Cn1c(CNC(=O)O[C@H]2CC[C@@H](N)CC2)nc2ccccc21	90.1	52.8	
COc1cc2ncnc(N[C@H]3CC[C@@H](NCCCN(C)C)CC3)c2cc1OC	96.5	11.1	
N[C@H]1CC[C@@H](Oc2ncnc3ccccc23)CC1	103	76.8	
C[C@@H]1C[C@H]2[C@@H]3CCC4=CC(=O)C=C[C@]4(C)[C@@]3(F)[C@@H](O)C[C@]2(C)[C@@]1(O)C(=O)CO			Activity (Mus musculus [9]): Active; Activity (Mus musculus [10]): inactive; Activity (Mus musculus [11]): inactive; Activity (Mus musculus [12]): Active; Activity (Mus musculus [13]): Active; Activity (Mus musculus [14]): Active; Activity (Mus musculus [15]): Active; Activity (Mus musculus [16]): Active; Activity (Mus musculus [17]): Active
COc1cc2ncnc(N[C@H]3CC[C@@H](N)CC3)c2cc1OC	91.1	83.7	
COCCOc1cc2ncnc(O[C@H]3CC[C@@H](N)CC3)c2cc1OCCOC	98.6	52.7	
COc1cc2ncnc(O[C@H]3CC[C@@H](N)CC3)c2cc1OC	88.9	75.8	
COc1cc2ncnc(Oc3cccc(NC(=O)N[C@H]4CC[C@@H](NS(=O)(=O)c5ccccc5)CC4)c3)c2cc1OC	112	16	
CCN1CCN(CCOc2ncnc3cc(OC)c(OC)cc23)CC1	90.1	40	
COc1ccc(C(=O)/C=C/c2cccc(OC)c2OC)cc1			Activity [18]: Active
